Experimental data published in patent US20100099614A1, “Antimicrobial Peptides and Methods of Use” (priority 2008, published 2010).
≈ marks a conversion by molar mass, not a printed value. Entries after “also recorded” stand apart in the source; their conditions may differ. Square brackets hold non-standard residues; d marks the D form. Ends that are not written are not given here. Peptide text beside a SMILES is read from it.

What was measured:
human erythrocytes = assay: Hemolytic activity (MHC), Protocol A; format: cell-based
Description: Hemoglobin release was determined spectrophotometrically at 562 nm.
In some experiments the hemolytic titer was determined as the highest 2-fold dilution of peptide that caused hemoglobin release.

Gram-negative bacteria = assay: Antibacterial activity (MIC), microtiter dilution; format: cell-based; conditions: for MIC: against Gram-negative bacteria
Description: MICs were determined by a standard microtiter dilution method in Mueller Hinton Broth (MHB). Serial dilutions of the 10× compound were added to the microtiter plates in a volume of 10 μL followed by 90 μL of bacteria for an inoculum of 5×10^5 colony-forming units (CFU)/mL. The plates were incubated at 37° C. for 24 h, and the MICs were determined as the lowest peptide concentration that inhibited growth. […]
Alternatively; minimal inhibitory concentrations were determined using a standard microtiter dilution method in a Mueller-Hinton (MH) medium. Briefly, cells were grown overnight at 37° C. in MH broth and diluted in the same medium. Serial dilutions of the peptides were added to the microtiter plates in a volume of 100 μl followed by 10 μl of bacteria for an initial cell concentration of 1×10^5 CFU/ml. Plates were incubated at 37° C. for 24 hours and MICs determined as the lowest peptide concentration that inhibited growth.

[1] = Peptide hydrophobicity by RP-HPLC retention; format: physicochemical; conditions: 80° C.; for change in hydrophobicity (RP-HPLC retention) relative to PVL: polar face substitution
Description: Peptide Synthesis and Purification—Syntheses of the peptides were carried out by solid-phase peptide synthesis using t-butyloxycarbonyl chemistry and MBHA (4-methylbenzhydrylamine) resin (0.97 mmol/g), followed by cleavage of the peptide from the resin as described previously (117-119). However, it is understood in the art that there are other suitable instruments and methods for automated or manual peptide synthesis that could be employed to produce the peptides described herein. Peptide purification was performed by reversed-phase high-performance liquid chromatography (RP-HPLC) on a Zorbax 300 SB-C8 column (250×9.4 mm I.D.; 6.5 μm particle size, 300 Å pore size; Agilent Technologies, Little Falls, Del.) with a linear AB gradient (0.1% acetonitrile/min) at a flow rate of 2 mL/min, where eluent A was 0.2% aqueous trifluoroacetic acid (TFA), pH 2, and eluent B was 0.2% TFA in acetonitrile, where the shallow 0.1% acetonitrile/min gradient started 12% below the acetonitrile concentration required to elute the peptide on injection of analytical sample using a gradient of 1% acetonitrile/min (113). The purity of the peptides was verified by analytical RP-HPLC as described below and further characterized by mass spectrometry and amino acid analysis. Crude and purified peptides were analyzed on an Agilent 1100 series liquid chromatograph. Runs were performed on a Zorbax 300 SB-C8 column (150×2.1 mm I.D.; 5 μm particle size, 300 Å pore size) from Agilent Technologies using a linear AB gradient (1% acetonitrile/min) and a flow rate of 0.25 mL/min, where eluent A was 0.2% aqueous TFA, pH 2, and eluent B was 0.2% TFA in acetonitrile.
Analytical RP-HPLC of Peptides—Peptides were analyzed on an Agilent 1100 series liquid chromatograph (Little Falls, Del.). Runs were performed on a Zorbax 300 SB-C8 column (150×2.1 mm I.D.; 5 μm particle size, 300 Å pore size) from Agilent Technologies using linear AB gradient (1% acetonitrile/min) and a flow rate of 0.25 ml/min, where solvent A was 0.05% aqueous TFA, pH 2 and solvent B was 0.05% TFA in acetonitrile. Temperature profiling analyses were performed in 3° C. increments, from 5° C. to 80° C.

Gram-positive bacteria = conditions: gram-positive bacteria, geometric mean MIC

For `CC[C@H](C)[C@H](NC(=O)[C@H](C)NC(=O)[C@H](CCCCN)NC(=O)[C@H](CC(C)C)NC(=O)[C@H](C)NC(=O)[C@@H](NC(=O)[C@H](Cc1c[nH]cn1)NC(=O)[C@H](CC(C)C)NC(=O)[C@@H](NC(=O)[C@@H](NC(=O)[C@H](CCCCN)NC(=O)[C@@H](C)NC(=O)[C@H](C)NC(=O)[C@H](CO)NC(=O)[C@H](CCCCN)NC(=O)[C@H](Cc1ccccc1)NC(=O)[C@@H](NC(=O)[C@H](CCCCN)NC(=O)[C@H](CC(C)C)NC(=O)[C@H](Cc1ccccc1)NC(=O)[C@H](CO)NC(=O)[C@H](CCCCN)NC(=O)[C@H](Cc1c[nH]c2ccccc12)NC(=O)[C@H](CCCCN)NC(C)=O)[C@@H](C)O)[C@@H](C)O)C(C)C)[C@@H](C)O)C(=O)N[C@@H](CO)C(=O)N[C@@H](CO)C(N)=O` [NAD] (HELM PEPTIDE1{[ac].K.W.K.S.F.L.K.T.F.K.S.A.[dA].K.T.V.L.H.T.A.L.K.A.I.S.S.[am]}$$$$V2.0), the “fold decrease in hemolytic activity relative to L-diastereomer” value (human erythrocytes) was 8 fold and the “minimal hemolytic concentration (MHC)” value (human erythrocytes; red cells of human, 12 h) was 250 µg/mL.

For “PKD: V681 analog, D-Lys at position 11 (KWKSFLKTFK[dK]AVKTVLHTALKAISS-NH2)”, the “improvement on the average MIC value compared to V681” value (Gram-negative bacteria; geometric mean of 6 gram-negative strains) was 3.4 fold.

With “NSL: V681 analog, L-Ser at position 13 (non-polar face) (KWKSFLKTFKSASKTVLHTALKAISS)” the “change in hydrophobicity (RP-HPLC retention) relative to NVL” value ([1]; non-polar face substitution) was -8.21 min.

With `CC[C@H](C)[C@H](NC(=O)[C@H](C)NC(=O)[C@H](CCCCN)NC(=O)[C@H](CC(C)C)NC(=O)[C@H](C)NC(=O)[C@@H](NC(=O)[C@H](Cc1c[nH]cn1)NC(=O)[C@H](CC(C)C)NC(=O)[C@@H](NC(=O)[C@@H](NC(=O)[C@H](CCCCN)NC(=O)[C@@H](NC(=O)[C@H](C)NC(=O)[C@@H](CO)NC(=O)[C@H](CCCCN)NC(=O)[C@H](Cc1ccccc1)NC(=O)[C@@H](NC(=O)[C@H](CCCCN)NC(=O)[C@H](CC(C)C)NC(=O)[C@H](Cc1ccccc1)NC(=O)[C@H](CO)NC(=O)[C@H](CCCCN)NC(=O)[C@H](Cc1c[nH]c2ccccc12)NC(=O)[C@H](CCCCN)NC(C)=O)[C@@H](C)O)C(C)C)[C@@H](C)O)C(C)C)[C@@H](C)O)C(=O)N[C@@H](CO)C(=O)N[C@@H](CO)C(N)=O` [PSD] (HELM PEPTIDE1{[ac].K.W.K.S.F.L.K.T.F.K.[dS].A.V.K.T.V.L.H.T.A.L.K.A.I.S.S.[am]}$$$$V2.0; N-terminus and C-terminus assumed) the “improvement in antimicrobial activity compared to V681” value (Gram-positive bacteria) was 2.7 fold.

For `CC[C@H](C)[C@H](NC(=O)[C@H](C)NC(=O)[C@H](CCCCN)NC(=O)[C@H](CC(C)C)NC(=O)[C@H](C)NC(=O)[C@@H](NC(=O)[C@H](Cc1cnc[nH]1)NC(=O)[C@H](CC(C)C)NC(=O)[C@@H](NC(=O)[C@@H](NC(=O)[C@H](CCCCN)NC(=O)[C@H](CCCCN)NC(=O)[C@H](C)NC(=O)[C@H](CO)NC(=O)[C@H](CCCCN)NC(=O)[C@H](Cc1ccccc1)NC(=O)[C@@H](NC(=O)[C@H](CCCCN)NC(=O)[C@H](CC(C)C)NC(=O)[C@H](Cc1ccccc1)NC(=O)[C@H](CO)NC(=O)[C@H](CCCCN)NC(=O)[C@H](Cc1c[nH]c2ccccc12)NC(=O)[C@H](CCCCN)NC(C)=O)[C@@H](C)O)[C@@H](C)O)C(C)C)[C@@H](C)O)C(=O)N[C@@H](CO)C(=O)N[C@@H](CO)C(N)=O` [NKL], the “fold decrease in hemolytic activity relative to V681” value (human erythrocytes) was greater than 32 fold, the “minimal hemolytic concentration (MHC)” value (human erythrocytes; human erythrocytes) was “undetectable level; also recorded: no detectable hemolytic activity” and the MIC (Gram-negative bacteria) was 3.1 µg/mL (≈ 1.04 µM).

For Ac-KWKSFLKTFKSALKTVLHTALKAISS-NH2 [NLL], the “minimal hemolytic concentration (MHC)” value (human erythrocytes; red cells of human, 12 h) was 7.8 µg/mL and the MIC (Gram-negative bacteria) was 12.7 µg/mL.

For “PKL: V681 analog, L-Lys at position 11 (polar face) (KWKSFLKTFKKAVKTVLHTALKAISS)”, the “change in hydrophobicity (RP-HPLC retention) relative to PVL” value [1] was -2.29 min.

In the case of Ac-KWKSFLKTFKVAVKTVLHTALKAISS-NH2 [PVL], the “minimal hemolytic concentration (MHC)” value (human erythrocytes; red cells of human, 12 h) is reported as 7.8 µg/mL.

In the case of Ac-KWKSFLKTFKSAAKTVLHTALKAISS-NH2 [NAL], the “minimal hemolytic concentration (MHC)” value (human erythrocytes; red cells of human, 12 h) is reported as 31.2 µg/mL.

With “PAL: V681 analog, L-Ala at position 11 (polar face) (KWKSFLKTFKAAVKTVLHTALKAISS)” the “change in hydrophobicity (RP-HPLC retention) relative to PVL” value [1] was “+0.45 min”.

For `CC[C@H](C)[C@H](NC(=O)[C@H](C)NC(=O)[C@H](CCCCN)NC(=O)[C@H](CC(C)C)NC(=O)[C@H](C)NC(=O)[C@@H](NC(=O)[C@H](Cc1c[nH]cn1)NC(=O)[C@H](CC(C)C)NC(=O)[C@@H](NC(=O)[C@@H](NC(=O)[C@H](CCCCN)NC(=O)[C@@H](NC(=O)[C@H](C)NC(=O)[C@H](NC(=O)[C@H](CCCCN)NC(=O)[C@H](Cc1ccccc1)NC(=O)[C@@H](NC(=O)[C@H](CCCCN)NC(=O)[C@H](CC(C)C)NC(=O)[C@H](Cc1ccccc1)NC(=O)[C@H](CO)NC(=O)[C@H](CCCCN)NC(=O)[C@H](Cc1c[nH]c2ccccc12)NC(=O)[C@H](CCCCN)NC(C)=O)[C@@H](C)O)C(C)C)C(C)C)[C@@H](C)O)C(C)C)[C@@H](C)O)C(=O)N[C@@H](CO)C(=O)N[C@@H](CO)C(N)=O` [PVD] (HELM PEPTIDE1{[ac].K.W.K.S.F.L.K.T.F.K.[dV].A.V.K.T.V.L.H.T.A.L.K.A.I.S.S.[am]}$$$$V2.0), the “fold decrease in hemolytic activity relative to L-diastereomer” value (human erythrocytes) was 16 fold and the “minimal hemolytic concentration (MHC)” value (human erythrocytes; red cells of human, 12 h) was 125 µg/mL.
